Structures can show the parent of a compound that is named as a salt.
Columns and labels:
[1] = system: HCT-116, HCT-116-siRNA-topo1 and HCT-116-siRNA-topo2 cells; test: Single-cell array immunoblotting for topo1, topo2 and γH2AX in halo and nucleus; assay type: cell-based; details: alkaline solution, primary antibodies to topo1, topo2, γH2AX, fluorescent secondary antibodies
Protocol: (§1) Identification of topoisomerase complexes with DNA and histones at single-cell level can provide mechanistic confirmation on drug- or radiation-DNA interaction. Three colorectal cancer cell lines, HCT-116 (normal topo1/topo2 expression), HCT-116-siRNA-topo1 (low topo1 expression) and HCT-116-siRNA-topo2 (low topo2 expression), are treated with two drugs (one targets topo1 and the other targets topo2), followed by immunoblotting with the array of invention. First, cells are treated with CPT-11 (topo1 drug), and processed for use with the invention using SYBR SAFE dye to reflect the extent of DNA damage. […] In a second experiment, CPT-11 treated cells are subjected to an alkaline solution to allow damaged DNA diffusion (without fluorescence staining), and then incubated with three primary antibodies (topo1, topo2 and γH2AX) for 10 min. After washing to remove excess antibodies, three fluorescent secondary antibodies against topo1, topo2 and γ-H2AX are added. After washing away excess antibodies, the three proteins are detected with fluorescence imaging. […] Parallel studies with VP-16, which targets topo2 enzyme is performed. […] Similar experiments are performed to test X-ray irradiated cells. The results are compared to provide information on drug actions.

MCF7 cells = test: Paper-based single-cell array halo assay of DNA damage (NDF); details: drug concentration 50 μM (0 at 0 μM); FIG. 6E/6F
Protocol: (§2) Fibroblast cells, human glioblastoma cells (A172) and breast cancer cells (MCF7) were cultured in standard conditions (5% CO2 in air at 37° C.) in RPMI-1640 medium supplemented with 10% (v/v) fetal bovine serum and 1% (v/v) penicillin/streptomycin. For obtaining individual cells, cells were trypsinized.
(§3) After exposure to anticancer treatment (radiation or chemotherapy drug), cells were seeded on the cell array precursor at a density of 1×10^6 cells/ml, forming ordered single-cell arrays (FIG. 1A). The quality of single cell arrays was primarily determined by surface roughness of the substrate (FIGS. 3E-H). As the paper surface became smoother, more cells were attached, and the array became more ordered. The attachment probability was derived as the ratio between adsorbed cells and the number of micro-patches. The probability of single cell array increased as the number of layers increased from 25±3.1%, 70±3.5%, to 87±6.4% for 1, 3 and 5 layers of ink, respectively. Five layers of ink provided a high quality substrate for single cell array formation, making this method ideal for paper-based single-cell halo assay.
(§4) After incubating cells on the paper for 30 min, unattached cells were rinsed away with PBS, followed by addition of 1.5 ml 1% low melting point (LGT)-agarose on paper. The substrate was kept at room temperature for 10 min to allow gel solidification. Then, cells on the paper were immersed in 0.3 M NaOH for 30 min at room temperature, and stained with diluted (×10000) SYBR green I solution for 15 min. After removing unbound dye, cells were imaged using an Olympus IX81 fluorescent microscope and the acquired images were analyzed with in-house image analysis software to quantify DNA damage. Each data point was averaged from at least 50 individual cells.
(§5) An in-house MATLAB image processing software was developed for quantifying DNA damage. In order to isolate individual cells, images were thresholded using Otsu's method into 4 levels. The first level was considered background; the second and third levels were combined to label halo; and the fourth level was used to label the nucleus. All non-background levels were combined to form a binary image of a cell. The eccentricity of each cell object was measured on a scale of 0 to 1, where a score of 0 corresponded to a perfectly circular object and a score of 1 corresponded to a line. Cell objects with an eccentricity>0.5 were removed from the image on the assumption that they contain overlapping cells (due to deposition of un-patterned cells). FIGS. 4A-F show the process of automatic analysis of the single-cell array using MATLAB software. The original image was transferred from a color image to a grayscale image (FIG. 4A). […] DNA damage measurements were calculated based on the halos and nuclei labeled for each cell. […]

fibroblast cells = test: as above; details: drug concentration 50 μM (0 at 0 μM); FIG. 6E/6F
Protocol: as §2, §3, §4, §5

A172 cells = test: as above; parameters: species or system human; details: drug concentration 50 μM (0 at 0 μM); FIG. 6E/6F
Protocol: After incubating cells on the paper for 30 min, unattached cells were rinsed away with PBS, followed by addition of 1.5 ml 1% low melting point (LGT)-agarose on paper. The substrate was kept at room temperature for 10 min to allow gel solidification. […] After removing unbound dye, cells were imaged using an Olympus IX81 fluorescent microscope and the acquired images were analyzed with in-house image analysis software to quantify DNA damage. […]
An in-house MATLAB image processing software was developed for quantifying DNA damage. […] The eccentricity of each cell object was measured on a scale of 0 to 1, where a score of 0 corresponded to a perfectly circular object and a score of 1 corresponded to a line. […] DNA damage measurements were calculated based on the halos and nuclei labeled for each cell. […]

[2] = system: HCT-116, HCT-116-siRNA-topo1 and HCT-116-siRNA-topo2 cells; test: Single-cell array halo assay in colorectal cancer cell lines with normal or low topo1/topo2 expression; assay type: cell-based; details: SYBR SAFE dye; compared among HCT-116, HCT-116-siRNA-topo1 and HCT-116-siRNA-topo2
Protocol: as §1

Structure (SMILES)	Protein found in halos (topoisomerase trapped in damaged DNA) [1]	NDF of MCF7 cells (MCF7 cells)	NDF of fibroblast cells (fibroblast cells)	NDF of A172 cells (A172 cells)	Halo size (extent of DNA damage) [2]
COc1cc([C@@H]2c3cc4c(cc3[C@@H](O[C@@H]3O[C@@H]5CO[C@@H](C)O[C@H]5[C@H](O)[C@H]3O)[C@H]3COC(=O)[C@H]23)OCO4)cc(OC)c1O [VP-16]	Only topo2 enzymes are trapped in damaged DNAs and diffused in halos	–	–	–	–
COc1cccc2c1C(=O)c1c(O)c3c(c(O)c1C2=O)C[C@@](O)(C(=O)CO)C[C@@H]3O[C@H]1C[C@H](N)[C@H](O)[C@H](C)O1 [doxorubicin, doxorubicin hydrochloride]	–	3.95	4.63	3.91	–
CCc1c2c(nc3ccc(OC(=O)N4CCC(N5CCCCC5)CC4)cc13)-c1cc3c(c(=O)n1C2)COC(=O)[C@]3(O)CC [irinotecan, irinotecan hydrochloride]	Only topo1 is found in halos	4.05	4.34	–	smallest in HCT-116-siRNA-topo1 cells
